The results in this text go back to EP0184291B1, “Polyether antibiotic A80190” (ELI LILLY AND COMPANY, priority 1984, dated 1986).

Where a SMILES comes first, the peptide text is derived from it. Bridges are numbered along the chain shown (N, C = ends). [ ]: non-standard residue; d: D form. The star is where a group is joined. Ileψ(thiazoline)Cys = CC[C@H](C)[C@H](N)C1=N[C@H](C(=O)*)CS1; dOrn = NCCC[C@@H](N)C(=O)O

One assay deals with A. macra. The assay can be described thus: Resistance to antibiotics, sensitivity discs on seeded ISP No. 2 agar. The class given is cell-based. How it is done:
(§1) Resistance to antibiotics was measured by padding antibiotic sensitivity discs onto the surface of seeded ISP No. 2 agar plates.
(§2) Table III lists the resistance of the strain to various antibiotics at the concentrations indicated and compares it to that of A. macra.

A further assay deals with NRRL 15878. Described as above. The class given is cell-based, Actinomadura oligospora. How it is done:
as §1, §2

In the case of `CO[C@H]1/C=C/O[C@@]2(C)Oc3c(C)c(O)c4c(O)c(c(/C=N/N5CCN(C)CC5)c(O)c4c3C2=O)NC(=O)/C(C)=C\C=C\[C@H](C)[C@H](O)[C@@H](C)[C@@H](O)[C@@H](C)[C@H](OC(C)=O)[C@@H]1C` [Rifampin], the “Resistance to Antibiotics” value in the assay on A. macra (Concentration 5 µg) is reported as “+”. Take `CC[C@H](C)[C@H](N)C1=N[C@H](C(=O)N[C@@H](CC(C)C)C(=O)N[C@H](CCC(=O)O)C(=O)N[C@H](C(=O)N[C@H]2CCCCNC(=O)[C@H](CC(N)=O)NC(=O)[C@@H](CC(=O)O)NC(=O)[C@H](Cc3cnc[nH]3)NC(=O)[C@@H](Cc3ccccc3)NC(=O)[C@H]([C@@H](C)CC)NC(=O)[C@@H](CCCN)NC2=O)[C@@H](C)CC)CS1` [Bacitracin] ({Ileψ(thiazoline)Cys}-L[dE]IK[dOrn]I[dF]H[dD]N; lactam 4-C): the “Resistance to Antibiotics” value with NRRL 15878 (Concentration 10 units) is given as “+”; in the assay on A. macra (Concentration 10 units) it was “-”.

Regarding `CN(C)[C@@H]1C(O)=C(C(N)=O)C(=O)[C@@]2(O)C(O)=C3C(=O)c4c(O)cccc4[C@@](C)(O)[C@H]3C[C@@H]12` [Tetracycline], the “Resistance to Antibiotics” value with A. macra (Concentration 30 µg) is recorded as “-”. Regarding `CC1(C)S[C@@H]2[C@H](NC(=O)Cc3ccccc3)C(=O)N2[C@H]1C(=O)O` [Pencillin G], in the assay on A. macra (Concentration 10 units), the “Resistance to Antibiotics” value is on record as “+”. In the case of Gentamicin, the “Resistance to Antibiotics” value with NRRL 15878 (Concentration 10 µg) and in the assay on A. macra (Concentration 10 µg) was “-” in each case. `CN[C@H](CC(C)C)C(=O)N[C@H]1C(=O)N[C@@H](CC(N)=O)C(=O)N[C@H]2C(=O)N[C@H]3C(=O)N[C@H](C(=O)N[C@H](C(=O)O)c4cc(O)cc(O)c4-c4cc3ccc4O)[C@H](O)c3ccc(c(Cl)c3)Oc3cc2cc(c3O[C@@H]2O[C@H](CO)[C@@H](O)[C@H](O)[C@H]2O[C@H]2C[C@](C)(N)[C@H](O)[C@H](C)O2)Oc2ccc(cc2Cl)[C@H]1O` [Vancomycin]: the “Resistance to Antibiotics” value in the assay on NRRL 15878 (Concentration 30 µg) and in the assay with A. macra (Concentration 30 µg) was “-” each time. Consider `CC(=O)OCC1=C(C(=O)O)N2C(=O)[C@@H](NC(=O)Cc3cccs3)[C@H]2SC1` [Cephalothin], for which, in the assay with A. macra (Concentration 30 µg), the “Resistance to Antibiotics” value was “+”. Take `[H]/N=C(/N)N[C@H]1[C@H](O)[C@@H](O)[C@H](O[C@@H]2O[C@@H](C)[C@](O)(C=O)[C@H]2O[C@@H]2O[C@@H](CO)[C@H](O)[C@@H](O)[C@@H]2NC)[C@@H](N/C(N)=N\[H])[C@@H]1O` [Streptomycin]: in the assay on A. macra (Concentration 10 µg), the “Resistance to Antibiotics” value is recorded as “+”.
